According to ChEMBL document CHEMBL3045541, “Synthesis and systemic fungicidal activity of silicon-containing azole derivatives” (2000):

These compounds were tested on Rhizoctonia solani (assay: Fungicidal activity against Rhizoctonia solani infected Oryza sativa var. Nipponbare assessed per 10 […] applied by submerged-treatment 7 days prior to infection measured after 5 days).
Assay type: functional

Structure (SMILES) | MED [g]
C[Si](C)(C)CCC(O)(Cn1cncn1)c1ccc(F)cc1 (stereo unspecified) | >100
CCC(C(O)(Cn1cncn1)c1ccc(F)cc1)[Si](C)(C)C (stereo unspecified) | 50
C=CC(C(O)(Cn1cncn1)c1ccc(F)cc1)[Si](C)(C)C (stereo unspecified) | 100
C[Si](C)(C)C#CC(O)(Cn1cncn1)c1ccc(Cl)cc1Cl (stereo unspecified) | >100
C=CC(C(O)(Cn1cncn1)c1ccc(Cl)cc1)[Si](C)(C)C (stereo unspecified) | >100
C[Si](C)(C)CC(O)(Cn1ccnn1)c1ccc(F)cc1 (stereo unspecified) | >100
C[Si](C)(C)CC(O)(Cn1nccn1)c1ccc(F)cc1 (stereo unspecified) | >100
CC(C)(n1cncn1)C(O)(C[Si](C)(C)C)c1ccc(F)cc1 (stereo unspecified) | >100
C[Si](C)(C)CC(O)(Cn1ccnc1)c1ccc(F)cc1 (stereo unspecified) | >100
C[Si](C)(C)CC(O)(Cn1cnnc1)c1ccc(F)cc1 (stereo unspecified) | >100
C[Si](C)(C)CC(O)(Cn1cncn1)c1ccccc1F (stereo unspecified) | 100
CC(n1cncn1)C(O)(C[Si](C)(C)C)c1ccc(F)cc1 (stereo unspecified) | 50
CCC(n1cncn1)C(O)(C[Si](C)(C)C)c1ccc(F)cc1 (stereo unspecified) | >100
C[Si](C)(C)CC(O)(Cn1cncn1)c1ccc(Cl)cc1F (stereo unspecified) | 50
C[Si](C)(C)CC(O)(Cn1cncn1)c1cccc(F)c1 (stereo unspecified) | 50
C[Si](C)(C)CC(O)(Cn1cncn1)c1ccc(C(F)(F)F)cc1 (stereo unspecified) | 100
C[Si](C)(C)CC(O)(Cn1cncn1)c1ccc(Br)cc1 (stereo unspecified) | >100
C[Si](C)(C)CC(O)(Cn1cncn1)c1ccc(F)cc1F (stereo unspecified) | 100
C[Si](C)(C)CC(O)(Cn1cncn1)c1ccccc1 (stereo unspecified) | 50
Cc1ccc(C(O)(Cn2cncn2)C[Si](C)(C)C)cc1 (stereo unspecified) | >100
COc1ccc(C(O)(Cn2cncn2)C[Si](C)(C)C)cc1 (stereo unspecified) | >100
C[Si](C)(C)CC(O)(Cn1cncn1)c1ccc(Cl)cc1Cl (stereo unspecified) | 100
C[Si](C)(C)CC(O)(Cn1cncn1)c1ccc(Cl)cc1 (stereo unspecified) | 25
CC(C)Oc1cccc(NC(=O)c2ccccc2C(F)(F)F)c1 [FLUTOLANIL] | >100
CCCCC(O)(Cn1cncn1)c1ccc(Cl)cc1Cl (stereo unspecified) [HEXACONAZOLE] | 50
C[Si](C)(C)CC(O)(Cn1cncn1)c1ccc(F)cc1 (stereo unspecified) [SIMECONAZOLE] | 12.5
